Test results reported in article PMC7367873, “Dissecting the sequence determinants for dephosphorylation by the catalytic subunits of phosphatases PP1 and PP2A” (Nature Communications, 2020).

System: GFP-14-3-3β and its binding proteins
Assay: GFP-14-3-3β co-IP with LC-MS/MS label-free quantification, untreated versus PP1c-treated
Design: species or system human

PP1c: recombinant catalytic subunit of PP1
number of proteins significantly dissociating from 14-3-3 (1 µM recombinant PP1c, 1 h at 30 °C, FDR 0.05, of 108 interacting proteins, three replicates): 56 proteins
Difference (log2), PP1 vs untreated (log2 difference, pairwise comparison PP1 vs untreated, label-free quantification, 3 replicates each): 5.428
number of dissociating proteins with at least one PP1c-regulated phosphorylation site (mapped onto phosphoproteomic dataset, of 56 proteins): 35 proteins
14-3-3-protein interactions disrupted (recombinant PP1c): 52%
